We go through 6 compounds from US10329518B2, “Anionic surfactants” (Novus International Inc., priority 2015, dated 2019).

Data set [1] can be described thus: Water solubility assessed visually at room temperature. The following applies: in water, visual assessment. The data set is classed as physicochemical. The method, then:
Dowex MAC-3 resin (proton form) was swollen and neutralized with excess NaOH/water solution, and then assembled into a column. After the resin was balanced with 2 column volumes of 30 vol % water in ethanol, 1 column volume of a 0.1 g/mL acid in 30 vol % water in ethanol solution was loaded and incubated in the column for 10 min. Subsequently, the resin was rinsed with 2 column volumes of 30 vol % water in ethanol, and the eluent was collected. The pH of the 1 wt % solutions/suspensions of the solids increased from 4 to 8 after passing through the column. The solvent was then evaporated under vacuum at mild heat (40° C.) to provide the sodium carboxylate salts. The sodium salts were fully soluble in water (deionized with 18MΩ resistivity), while the starting carboxylic acids were insoluble. The solubility of the surfactants in water was assessed visually at room temperature. The mixture at each concentration was examined after at least 10 min of mild shaking and ultrasonic bath agitation to see if the surfactant completely dissolved. […] Surface tension was determined with a Wilhelmy Plate tensiometer (Cahn DCA-322) at room temperature. Glass slides manufactured by Corning with a width of 22 mm and thickness of 0.1 mm were used as probes. The motor speed was set to be 100 μm/sec. The CMC was determined from the break point of Υvs. log C diagram with a custom Microsoft Visual Basic program.

A short description of data set [2]: Surface tension by Wilhelmy plate tensiometer; CMC from break point of surface tension vs. log C. It is filed as physicochemical. The following applies: room temperature. The method, then:
The solubility of the surfactants in water was assessed visually at room temperature. The mixture at each concentration was examined after at least 10 min of mild shaking and ultrasonic bath agitation to see if the surfactant completely dissolved. […] Surface tension was determined with a Wilhelmy Plate tensiometer (Cahn DCA-322) at room temperature. Glass slides manufactured by Corning with a width of 22 mm and thickness of 0.1 mm were used as probes. The motor speed was set to be 100 μm/sec. The CMC was determined from the break point of Υvs. log C diagram with a custom Microsoft Visual Basic program.

Data set [3] in a line: Krafft temperature determination. The following applies: within 48 hours. It is filed as physicochemical. The protocol:
[…] the solution to 4° C. and then raising the temperature by 1° C. steps and visually inspecting its phase behavior after the solution reached thermal equilibrium. For hardness tolerance, a known amount of calcium chloride was added to the solution prior to cooling to 4° C.

The nature of data set [4]: Hardness (calcium chloride) tolerance. It is filed as physicochemical. The following applies: for CaCl2 Tolerance / Hardness Tolerance: CaCl2 added, cooled to 4° C., heated to 25° C., visual. The protocol: The Krafft temperature of the surfactant with the concentration at the room temperature CMC was determined by cooling the solution to 4° C. and then raising the temperature by 1° C. steps and visually inspecting its phase behavior after the solution reached thermal equilibrium. For hardness tolerance, a known amount of calcium chloride was added to the solution prior to cooling to 4° C.

Data set [5] can be described thus: Draves wetting test (ASTM D2281-68). The data set is classed as physicochemical. The protocol:
The Draves wetting test was performed according to ASTM […]-68. 500 mL of surfactant solution was poured into a 500 mL graduated cylinder (38 cm in height), and a 5.0 g standard skein hooked with a lead anchor was dropped into the solution. The skein floats in the solution initially and sinks when wetted, and the time taken was recorded as the time of wetting.

For data set [6] the following is noted: cited from earlier work; for CMC/C20: literature value (footnotes b, d).
For data set [7] the following is noted: literature value (footnote c); cited from earlier work.
For data set [8] the following is noted: literature value (footnotes a, c); cited from earlier work.
A short description of data set [9]: Ross-Miles foam test (ASTM D1173-07). It is filed as physicochemical. The following applies: 1 wt % solution. The protocol: The Ross-Miles foam test was performed according to the test protocol described in ASTM D1173-07. […] 50 mL of each surfactant solution (1 wt %) was carefully poured into the 1 meter glass column, without creating any foam, which is called the receiver. A 200 mL pipette with the surfactant solution is placed 90 cm above the receiver and the solution is allowed to drop into the foam receiver. The height of the foam produced is measured immediately and after 5 minutes.

The conditions of data set [10]: literature value (footnotes a, b); cited from earlier work.

Like-named read-outs stand apart in the source and are kept apart here.

In the case of `CCCCCCCCCCCCCCCC(=O)OC(CC[S+](C)[O-])C(=O)[O-].[Na+]` (centres unmarked) [C16ESOCOONa], the “Water Solubility” value in [1] was determined as 117 mM. Moreover, in data set [2], the CMC was 0.54 mM, the CMC/C20 amounted to 4.56, the pC20 was 4.07 and the “ΥCMC (surface tension at CMC)” value was found to be 42 mN/m. For the same compound, the “Precipitation of 1 wt % solution in 4° C. water bath” value (from here on “Precipitation of 1 wt % solution”) in data set [3] is “did not show precipitation”. In data set [4], the “CaCl2 Tolerance” value was determined as 100 µM and the “Hardness Tolerance” value is recorded as 10 ppm as CaCO3.
In the case of `CCCCCCCCCCCCOS(=O)(=O)[O-].[Na+]` [SDS, sodium dodecyl sulfate], the “Draves wetting time of 0.1 wt % solution” value in [5] is 11 s. Further, in [6] (literature value (footnote d)), the CMC is reported as 12.4^d mM, the pC20 is given as 2.36^d and the “ΥCMC (surface tension at CMC)” value is recorded as 40^d mN/m. In data set [6], the CMC/C20 is on record as 2.6^d. For the same compound, in [7], the “CaCl2 Tolerance” value is on record as 40^c μM and the “Hardness Tolerance” value is 4^c ppm as CaCO3.
For “sodium dodecylbenzene sulfonate [SDBS, reference compound]”, in data set [2], the CMC was found to be 3.1 mM, the CMC/C20 was determined as 5.30, the pC20 amounted to 3.24 and the “ΥCMC (surface tension at CMC)” value was found to be 34 mN/m. Besides, in data set [8], the “Water Solubility” value was 575^a mM.
Regarding `CCCCCCCCCCCC(=O)OC(CCSC)C(=O)[O-].[Na+]` (centres unmarked) [C12ESCOONa], the “Water Solubility” value in data set [1] worked out at 282 mM. Also, in data set [2], the CMC is recorded as 1.0 mM, the CMC/C20 turned out to be 5.55, the pC20 is listed as 3.84 and the “ΥCMC (surface tension at CMC)” value worked out at 35 mN/m. Also, in [3], the “Precipitation of 1 wt % solution” value was “did not show precipitation”. Also, in data set [4], the “CaCl2 Tolerance” value is 100 µM and the “Hardness Tolerance” value turned out to be 10 ppm as CaCO3. The “Calcium tolerance relative to the linear carboxylate (NaL)” value in data set [4] (versus NaL) is “approximately 2.5 orders of magnitude”. In [4] (versus SDS), the “Calcium tolerance relative to the linear sulfate SDS” value is reported as “about half an order of magnitude better”. For the same compound, in data set [5], the “Draves wetting time of 0.1 wt % solution” value was found to be 11 s. Moreover, in data set [5] (0.1 wt % solutions), the “Draves wetting performance compared with references” value is “outperformed NaL in wetting time with a comparable performance to SDS”. For the same compound, the Foam dissipation entry in [9] (foam height immediately and after 5 minutes) is reported as “dissipates much faster”. The Foam height entry in data set [9] (versus SDS, SDBS, AES) is reported as “comparable to the reference anionic surfactants”.
What is called solubility is the dissolved amount per volume that the medium holds. Read a high solubility as a readily soluble substance. In data set [1] (thermodynamic from solid), `CCCCCCCCCCCC(=O)[O-].[Na+]` [NaL, sodium laurate, reference compound] yielded a solubility of 90 mM. In addition, in data set [2], the CMC amounted to 19.1 mM, the pC20 came out at 3.32 and the “ΥCMC (surface tension at CMC)” value was found to be 30 mN/m. Moreover, in data set [4], the “CaCl2 Tolerance” value was found to be 0.5 µM and the “Hardness Tolerance” value was 0.05 ppm as CaCO3. Also, in [5], the “Draves wetting time of 0.1 wt % solution” value worked out at 52 s. For the same compound, in data set [6], the CMC/C20 was 38.5^b. The “Krafft Point” value in data set [10] is given as 13^a ° C.
As to `CCCCCCCCCCCC(=O)OC(CC[S+](C)[O-])C(=O)[O-].[Na+]` (centres unmarked) [C12ESOCOONa], the “Water Solubility” value in data set [1] is reported as >1000^ mM. Also, in data set [2], the CMC worked out at 1.7 mM, the CMC/C20 was found to be 3.15, the pC20 was determined as 3.27 and the “ΥCMC (surface tension at CMC)” value was found to be 40 mN/m. Moreover, the “Precipitation of 1 wt % solution” value in [3] is given as “did not show precipitation”. For the same compound, in data set [4], the “CaCl2 Tolerance” value was 5000 µM and the “Hardness Tolerance” value was 500 ppm as CaCO3. Besides, the Hardness tolerance (of CaCl2) in [4] (text of b163) was 5000 µM. Moreover, the “Hardness tolerance relative to the unoxidized form” value in [4] (versus C12ESCOONa) was 50 times.
